Assay results taken from BindingDB's records for doi:10.1046/j.1471-4159.1997.68062263.x (Dynamique Des Systemes Neuroendocriniens, 1997).
Numbered stars: 1 amine (or outer) side, 2 acyl side, 3 side chain; on linkers, the order of the positions; unused ones are H or OH. Bridge positions count the residues as written; N and C are the ends. Square brackets hold non-standard residues; d marks the D form. Peptide text beside a SMILES is read from it. ξ: configuration not given here. Phe(4-CH2NHiPr) = CC(C)NCc1ccc(C[C@H](N)C(=O)O)cc1; X1 = CC(C)NCc1ccc(C[C@@H](N[*:1])C(=O)[*:2])cc1; d1Nal = N[C@H](Cc1cccc2ccccc12)C(=O)O; Thr(3ξ) = CC(O)[C@H](N)C(=O)O; ξF = NC(Cc1ccccc1)C(=O)O; ξK = NCCCCC(N)C(=O)O; ξT = CC(O)C(N)C(=O)O

Legend:
[1] = molecular target: Somatostatin receptor type 4 (Rattus norvegicus, UniProt P30937)
Sequence of Somatostatin receptor type 4 (P30937 whole entry): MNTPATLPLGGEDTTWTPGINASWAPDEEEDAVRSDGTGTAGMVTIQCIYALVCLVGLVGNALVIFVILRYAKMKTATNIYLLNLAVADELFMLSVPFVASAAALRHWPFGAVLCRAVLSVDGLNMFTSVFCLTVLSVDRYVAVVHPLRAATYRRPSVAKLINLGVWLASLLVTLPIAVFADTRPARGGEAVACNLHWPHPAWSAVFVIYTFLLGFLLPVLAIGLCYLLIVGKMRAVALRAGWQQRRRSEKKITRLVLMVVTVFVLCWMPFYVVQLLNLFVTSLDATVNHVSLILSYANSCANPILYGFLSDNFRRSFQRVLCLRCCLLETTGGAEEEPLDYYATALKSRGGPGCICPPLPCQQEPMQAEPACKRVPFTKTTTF

[2] = molecular target: Somatostatin receptor type 3 (Rattus norvegicus, UniProt P30936)
Sequence of Somatostatin receptor type 3 (P30936 whole entry): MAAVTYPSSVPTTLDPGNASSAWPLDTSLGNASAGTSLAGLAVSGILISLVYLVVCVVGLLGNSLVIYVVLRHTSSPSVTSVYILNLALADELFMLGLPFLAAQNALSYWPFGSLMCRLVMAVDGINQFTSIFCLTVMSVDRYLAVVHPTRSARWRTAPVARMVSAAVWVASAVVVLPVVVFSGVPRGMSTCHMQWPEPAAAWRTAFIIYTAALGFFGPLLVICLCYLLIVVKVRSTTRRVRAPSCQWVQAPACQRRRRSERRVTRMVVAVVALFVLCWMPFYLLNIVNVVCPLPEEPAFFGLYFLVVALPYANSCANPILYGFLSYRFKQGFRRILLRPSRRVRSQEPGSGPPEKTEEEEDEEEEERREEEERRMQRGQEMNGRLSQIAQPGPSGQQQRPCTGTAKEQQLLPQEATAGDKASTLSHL

[3] = molecular target: T1, Somatostatin receptor type 5 (Rattus norvegicus, UniProt P30938)
T1 sequence (P30938 whole entry): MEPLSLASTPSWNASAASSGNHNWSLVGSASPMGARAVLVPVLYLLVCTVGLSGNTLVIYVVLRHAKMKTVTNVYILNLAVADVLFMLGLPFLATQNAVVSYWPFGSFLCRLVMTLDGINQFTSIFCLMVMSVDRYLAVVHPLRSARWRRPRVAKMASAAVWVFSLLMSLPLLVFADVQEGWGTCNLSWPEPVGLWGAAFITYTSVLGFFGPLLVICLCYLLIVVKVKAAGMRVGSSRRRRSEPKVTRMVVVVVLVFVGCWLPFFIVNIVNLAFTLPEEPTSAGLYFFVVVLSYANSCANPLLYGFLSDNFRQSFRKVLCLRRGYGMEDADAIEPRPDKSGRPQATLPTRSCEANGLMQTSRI

[4] = molecular target: Somatostatin receptor type 2 (Rattus norvegicus, UniProt P30680)
Sequence of Somatostatin receptor type 2 (P30680 whole entry): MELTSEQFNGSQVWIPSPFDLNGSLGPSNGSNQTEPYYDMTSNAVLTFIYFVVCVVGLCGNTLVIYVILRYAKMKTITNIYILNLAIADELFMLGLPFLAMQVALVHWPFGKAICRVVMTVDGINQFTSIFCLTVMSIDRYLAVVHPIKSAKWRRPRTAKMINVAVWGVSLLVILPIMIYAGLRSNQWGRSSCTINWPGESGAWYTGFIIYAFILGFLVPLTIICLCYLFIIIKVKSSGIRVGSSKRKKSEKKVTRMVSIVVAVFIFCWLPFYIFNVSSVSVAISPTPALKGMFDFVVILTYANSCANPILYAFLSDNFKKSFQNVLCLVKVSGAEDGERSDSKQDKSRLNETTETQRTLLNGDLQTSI

[5] = molecular target: Somatostatin receptor type 1 (Rattus norvegicus, UniProt P28646)
Sequence of Somatostatin receptor type 1 (P28646 whole entry): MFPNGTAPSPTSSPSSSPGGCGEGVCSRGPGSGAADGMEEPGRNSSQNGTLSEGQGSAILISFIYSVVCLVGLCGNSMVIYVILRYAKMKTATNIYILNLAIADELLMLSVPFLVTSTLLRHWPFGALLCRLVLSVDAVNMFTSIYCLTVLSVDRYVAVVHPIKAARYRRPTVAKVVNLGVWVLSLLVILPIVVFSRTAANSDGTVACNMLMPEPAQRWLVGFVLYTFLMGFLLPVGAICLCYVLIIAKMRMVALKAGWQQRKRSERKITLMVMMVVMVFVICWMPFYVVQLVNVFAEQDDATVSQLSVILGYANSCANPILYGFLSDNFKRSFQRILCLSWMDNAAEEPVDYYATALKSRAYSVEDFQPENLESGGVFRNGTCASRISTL

| Ki [1] | Ki [2] | Ki [3] | Ki [4] | Ki [5] | Structure (SMILES) |
| --- | --- | --- | --- | --- | --- |
| 8.4 nM | 4.6 nM | 8.2 nM | 163 nM | – | C[C@@H](O)[C@H](NC(=O)[C@H](Cc1ccccc1)NC(=O)[C@@H](NC(=O)[C@H](CCCCN)NC(=O)[C@@H](Cc1c[nH]c2ccccc12)NC(=O)[C@H](Cc1ccccc1)NC(=O)[C@H](Cc1ccccc1)NC(=O)[C@H](N)Cc1ccccc1)[C@@H](C)O)C(N)=O [CAS_133073-82-2] (H-[dF]FF[dW]KTFT-NH2) |
| – | – | 279 nM | – | – | CC(C)NCc1ccc(C[C@H]2NC(=O)[C@H](Cc3c[nH]c4ccccc34)NC(=O)C(Cc3ccccc3)NC(=O)C(Cc3ccccc3)NC(=O)C(CCCCN)NC(=O)[C@H](N)CSSC[C@H](C(=O)O)NC(=O)[C@@H](CO)NC(=O)[C@H](C(C)O)NC(=O)[C@@H](Cc3ccccc3)NC(=O)C(C(C)O)NC2=O)cc1 (stereo not given in full) [CH-275] (H-[dC][ξK][ξF][ξF]W[X1][ξT][dF][Thr(3ξ)][dS][dC]-OH; disulfide 1-11) |
| 465 nM | 577 nM | – | 1000 nM | 45.7 nM | CC(C)NCc1ccc(C[C@@H]2NC(=O)[C@@H](Cc3c[nH]c4ccccc34)NC(=O)[C@H](Cc3ccccc3)NC(=O)[C@H](Cc3ccccc3)NC(=O)[C@H](CCCCN)NC(=O)[C@@H](N)CSSC[C@@H](C(=O)O)NC(=O)[C@H](CO)NC(=O)[C@H]([C@@H](C)O)NC(=O)[C@H](Cc3ccccc3)NC(=O)[C@H]([C@@H](C)O)NC2=O)cc1 [CH-275] (H-CKFF[dW][Phe(4-CH2NHiPr)]TFTSC-OH; disulfide 1-11) |
| – | – | 32.5 nM | – | – | CC(C)[C@H](NC(=O)[C@H](CCCCN)NC(=O)[C@@H](Cc1c[nH]c2ccccc12)NC(=O)[C@H](Cc1ccc(O)cc1)NC(=O)[C@H](Cc1ccccc1)NC(=O)[C@@H](N)Cc1ccccc1)C(=O)N[C@@H](Cc1ccccc1)C(=O)N[C@H](Cc1cccc2ccccc12)C(N)=O [BIM 23056] (H-FFY[dW]KVF[d1Nal]-NH2) |
| 83.8 nM | 380 nM | – | 835 nM | 301 nM | CC(C)[C@H](NC(=O)[C@H](CCCCN)NC(=O)[C@@H](Cc1c[nH]c2ccccc12)NC(=O)[C@H](Cc1ccc(O)cc1)NC(=O)[C@H](Cc1ccccc1)NC(=O)[C@H](N)Cc1ccccc1)C(=O)N[C@@H](Cc1ccccc1)C(=O)N[C@H](Cc1cccc2ccccc12)C(N)=O [BIM 23056] (H-[dF]FY[dW]KVF[d1Nal]-NH2) |

| Structure (SMILES) | Ki [1] | Ki [2] | Ki [3] | Ki [4] | Ki [5] |
| --- | --- | --- | --- | --- | --- |
| C[C@H](N)C(=O)NCC(=O)N[C@@H]1CSSC[C@@H](C(=O)O)NC(=O)[C@H](CO)NC(=O)[C@@H]([C@@H](C)O)NC(=O)[C@H](Cc2ccccc2)NC(=O)[C@@H]([C@@H](C)O)NC(=O)[C@H](CCCCN)NC(=O)[C@@H](Cc2c[nH]c3ccccc23)NC(=O)[C@H](Cc2ccccc2)NC(=O)[C@@H](Cc2ccccc2)NC(=O)[C@H](CC(N)=O)NC(=O)[C@@H](CCCCN)NC1=O | – | – | 2.6 nM | – | – |
